# Data as given in paper PMC8201324, “Pyrazoles and Pyrazolines as Anti-Inflammatory Agents” (Molecules, 2021).
# Molecular target: T1, soybean lipoxygenase (Glycine max, UniProt P08170)
# T1 construct: purchased Sigma Chemical, Co
# T1 sequence (P08170 1-839): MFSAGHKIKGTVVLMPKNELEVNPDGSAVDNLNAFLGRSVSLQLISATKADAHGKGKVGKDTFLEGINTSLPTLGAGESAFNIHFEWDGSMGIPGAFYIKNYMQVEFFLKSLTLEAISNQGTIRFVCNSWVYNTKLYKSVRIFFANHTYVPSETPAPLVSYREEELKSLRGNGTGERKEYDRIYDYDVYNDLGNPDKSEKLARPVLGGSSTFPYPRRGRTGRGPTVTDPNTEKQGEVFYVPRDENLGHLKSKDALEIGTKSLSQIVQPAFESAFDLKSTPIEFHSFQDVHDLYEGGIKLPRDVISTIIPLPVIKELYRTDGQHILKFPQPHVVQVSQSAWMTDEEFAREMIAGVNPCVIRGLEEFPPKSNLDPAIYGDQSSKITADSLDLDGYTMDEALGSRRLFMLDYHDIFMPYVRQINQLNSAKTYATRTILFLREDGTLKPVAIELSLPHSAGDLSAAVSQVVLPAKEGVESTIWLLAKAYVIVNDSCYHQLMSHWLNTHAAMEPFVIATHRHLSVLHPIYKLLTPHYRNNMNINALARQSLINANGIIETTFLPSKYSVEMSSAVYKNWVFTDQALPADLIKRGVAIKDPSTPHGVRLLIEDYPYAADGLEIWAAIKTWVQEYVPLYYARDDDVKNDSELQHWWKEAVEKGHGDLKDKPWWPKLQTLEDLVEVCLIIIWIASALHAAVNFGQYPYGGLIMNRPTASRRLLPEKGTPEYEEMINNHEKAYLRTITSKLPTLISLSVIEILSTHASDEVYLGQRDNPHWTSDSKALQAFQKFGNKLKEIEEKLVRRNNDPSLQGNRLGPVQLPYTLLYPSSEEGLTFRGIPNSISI
# Test: Soybean lipoxygenase inhibition study
# Format: biochemical
compound,measurement,setting,value
"CC(=O)n1nc(-c2ccc(Cl)cc2)cc1-c1cccc2ccccc12 [Compound 2g, 1-(3-(4-chlorophenyl)-5-(naphthalen-1-yl)-1H-pyrazol-1-yl)ethan-1-one]",inhibition at 100 µM,"compound 100 µM, linoleic acid sodium salt 50 µM, read-out: LOX % Inhibition 100 µM, LLA 50 µM",89.6%
same,type of LOX inhibition,"varying sodium linoleate concentration, enzyme and compound kept stable",competitive inhibition
